Laboratory results: patent publication US20170327509A1, “TWO-PHOTON ABSORBING FLUOROPHORES AND METHOD FOR CELLULAR IMAGING USING THE SAME” (POSTECH ACADEMY-INDUSTRY FOUNDATION, priority 2014, published 2017)
Where two headings read alike, the source gives them in different places.

How the values were obtained:
[1] = comparative compound, ethanol solution, cited from earlier work
[2] = reference compound; measured in ethanol; cited from earlier work
[3] = Fluorescence quantum yield (reference rhodamine B); assay type: physicochemical; conditions: water (containing 1% DMSO); FIGS. 15 and 34
Method: Further, fluorescence quantum yields of Compounds 1 to 9 in dichloromethane, acetonitrile, and water (containing 1% DMSO) were measured, and the results are shown in FIG. 15. Fluorescence quantum yields of Compounds 10 to 12 in dichloromethane, acetonitrile, and water (containing 1% DMSO) were measured, and the results are shown in FIG. 34. As a reference compound, rhodamine B was used (fluorescence quantum yield, ΦF=0.6, measured in ethanol).

[4] = Absorbance spectra / molar extinction coefficients at the maximum absorption wavelength; assay type: physicochemical; conditions: water (containing 1% DMSO), acetonitrile, and dichloromethane; FIG. 33
Method: Specifically, to confirm the absorbing properties of two-photon absorbing fluorophores, the inventors measured absorbance spectra for Compounds 1 to 9 at the concentration of 10 μM in HEPES buffer (containing 1% DMSO, pH 7.4) and water (containing 1% DMSO), contained in quartz cells with a light path length of 1 cm, and the results are respectively shown in the left and right graphs of FIG. 2. Absorbance spectra for Compounds 1 to 9 at the concentration of 10 μM in ethanol and acetonitrile were measured, and the results are respectively shown in the left and right graphs of FIG. 3. Absorbance spectra for Compounds 1 to 9 at the concentration of 10 μM in dimethylformamide and dichloromethane were measured, and the results are respectively shown in the left and right graphs of FIG. 4. Absorbance spectra for Compounds 1 to 9 at the concentration of 10 μM in cyclohexane were measured, and the result is shown in FIG. 5. Absorbance spectra for Compounds 10 to 12 at the concentration of 10 μM in water (a, containing 1% DMSO), acetonitrile (b), and dichloromethane (c) were measured, and the results are shown in FIG. 31. The absorbance spectra were measured using a HP 8453 UV/Vis spectrophotometer. […]

[5] = Two-photon absorption cross-section by two-photon induced fluorescence method; assay type: physicochemical; conditions: water (containing 1% DMSO); excitation 800 nm, 820 nm, 840 nm; FIG. 35
From the text: Specifically, to confirm the fluorescence properties of the two-photon absorbing fluorophores under two-photon excitation, the inventors measured fluorescence spectra by two-photon excitation using a titanium:sapphire oscillator (Ti:sapphire oscillator), which was pumped by a frequency-doubled neodimium:yttrium orthovanadate laser (Nd:YVO4 laser; Verdi, Coherent) with an output power of 5.0 W. Output pulse energy was 40 nJ, and repetition rate was 380 kHz.
In addition, two-photon absorption cross-section values of each of Compounds 1 and 5 to 7 in dichloromethane solution, acetonitrile solution, and water (containing 1% DMSO) were measured, and the results are shown in FIGS. 28 and 29. Two-photon absorption cross-section values of each of Compounds 10 to 12 in a dichloromethane solution, an acetonitrile solution, and water (containing 1% DMSO) were measured, and the results are shown in FIG. 35. As a comparative compound, rhodamine B generally used as a fluorescent probe was used (two-photon absorption cross-section values, GM=300 (740 nm), 470 (760 nm) and 540 (780 nm), measured in an ethanol solution). Two-photon absorption cross-section values were measured by a two-photon induced fluorescence method (Fischer, A. et al. Applied Optics 1995, 34, 1989), 1 GM refers to 10^−50 cm^4 s photon^−1 molecule^−1.

[6] = Fluorescence spectra / fluorescence intensities in solution; assay type: physicochemical; conditions: 1 μM in water (containing 1% DMSO); excitation at the maximum absorption wavelength; FIG. 40
Method: 10. […] 11. […] 12. […] 32. All fluorescence spectra were measured at the […] (FIG. 14). The fluorescence spectra were measured using a Photon Technical International Fluorescence System.
13(a). […] 13 (b, left) and FIG. 13 (b, right). Referring to FIGS. 9 and 13, it can be confirmed that fluorescence intensities of the two-photon absorbing fluorophores (particularly, Compounds 2 to 8) of the present invention in HEPES buffer (containing 1% DMSO, pH 7.4) and water (containing 1% DMSO) are higher than those of the conventional acedan (Compound 1).
In addition, to compare the fluorescence intensities of the compounds in aqueous solution according to a structural change, fluorescence intensities of Compounds 1, 5, and 13 to 18 at the concentration of 1 μM in water (containing 1% DMSO) were compared, and the results are shown in FIG. 40. The fluorescence intensities were measured through excitation of each compound at the maximum absorption wavelength. […] It can be confirmed that, as the degrees of hydrogen bonding of water molecule to the nitrogen atom in Compounds 13 to 17 are reduced, the fluorescence intensities increase.

`CC(=O)c1ccc2cc(NC(C)C)ccc2c1` [Compound 3, 1-(6-(isopropylamino)naphthalen-2-yl)ethanone] gave a melting point of 112 to 114 °C.

In the case of `CCN(CC)c1ccc2c(-c3ccccc3C(=O)O)c3ccc(=[N+](CC)CC)cc-3oc2c1.[Cl-]` [rhodamine B], the “two-photon absorption cross-section value” ([1]; 740 nm) is listed as 300 GM, the “two-photon absorption cross-section value” ([1]; 760 nm) is listed as 470 GM and the “two-photon absorption cross-section value” ([1]; 780 nm) is listed as 540 GM. For the same compound, the “fluorescence quantum yield, ΦF” value [2] was 0.6.

Compound `CNc1ccc2cc(C(C)=O)ccc2c1` [Compound 4, 1-(6-(methylamino)naphthalen-2-yl)ethanone] has a melting point of 182 °C.

For `CC(=O)c1ccc2cc(N(C)C3CCC(O)CC3)ccc2c1` (centres unmarked) [Compound 9, 1-(6-((4-hydroxycyclohexyl)(methyl)amino)naphthalen-2-yl)ethanone], the melting point was 192 to 194 °C.

In the case of `O=C1c2cccc3c(NC4CCC(O)CC4)ccc(c23)C(=O)N1CCO` (centres unmarked) [Compound 10, 6-(4-hydroxycyclohexylamino)-2-(2-hydroxyethyl)-1H-benzo[de]isoquinoline-1,3(2H)-dione], the fluorescence quantum yield [3] is reported as “higher than those of the conventional Compounds 11 and 12”, the molar extinction coefficients [4] is reported as “higher than those of the conventional Compound 11 (Formula 11) and Compound 12 (Formula 12)” and the “two-photon absorption cross-section value” [5] is reported as “higher than those of the conventional Compounds 11 and 12”.

With `CC(=O)c1ccc2cc(N3CCCC3)ccc2c1` [Compound 18] the fluorescence intensities [6] was “increase of fluorescence intensity”.

`CC(=O)c1ccc2cc(NC3CCC(O)CC3)ccc2c1` (centres unmarked) [Compound 5, 1-(6-(4-hydroxycyclohexylamino)naphthalen-2-yl)ethanone] showed a melting point of 186 to 188 °C.

`CC(=O)c1ccc2cc(N3CCOCC3)ccc2c1` [Compound 8, 1-(6-morpholinonaphthalen-2-yl)ethanone] showed a melting point of 149 to 151 °C.

Work on `CC(=O)c1ccc2cc(N3C4CCC3CC4)ccc2c1` yielded a melting point of 118 to 120 °C.
